The text below walks through data of ChEMBL document CHEMBL1201862, “PubChem BioAssay data set” (2004).

Activity calls are given as the source filed them.

Test [1] has as its target Beta-galactosidase (Escherichia coli, UniProt Q8VNN2). Put plainly: Dose response counterscreen for EBI2 assay utilizing the enzyme, b-galactosidase. It counts as functional.
The nature of test [2]: A Cell Based Secondary Assay to Explore Cytotoxicity in THP-1 Cells of Compounds that Modulate Mycobacterium tuberculosis in Media Containing Glycerol versus Media without Glycerol (2). Format: functional.
A short description of test [3]: Vero cell cytotoxicity, cytotoxicity control for M. tuberculosis inhibitor project, purified and synthesized samples, set 3 (AID 504684). The following applies: […]. Format: functional.
A short description of test [4]: Counterscreen for […] of the human trace amine associated receptor 1 (TAAR1): Fluorescence-based cell-based high throughput dose response assay to identify nonselective Ga16 agonists. Format: functional. Background: The purpose of a counterscreen is to sort out artefacts and off-target activity.
Test [5] addresses T1, Trace amine-associated receptor 1 (Homo sapiens, UniProt Q96RJ0).
T1 sequence (Q96RJ0 whole entry): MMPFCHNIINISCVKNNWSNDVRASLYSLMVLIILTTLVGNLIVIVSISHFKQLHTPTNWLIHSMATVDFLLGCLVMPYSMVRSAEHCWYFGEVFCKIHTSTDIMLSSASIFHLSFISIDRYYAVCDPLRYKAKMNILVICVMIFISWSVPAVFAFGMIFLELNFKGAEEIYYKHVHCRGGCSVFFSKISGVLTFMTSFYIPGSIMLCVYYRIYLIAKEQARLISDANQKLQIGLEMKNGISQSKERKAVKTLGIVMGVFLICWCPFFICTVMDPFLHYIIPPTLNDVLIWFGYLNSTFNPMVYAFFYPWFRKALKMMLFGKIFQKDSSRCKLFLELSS
As to the kind of experiment: Fluorescence-based cell-based high throughput dose response assay to identify antagonists of the human trace amine associated receptor 1 (TAAR1). It counts as functional.

A short description of test [6]: Counterscreen for antagonists of the human trace amine associated receptor 1 (hTAAR1): Fluorescence-based cell-based high throughput dose response assay to identify nonselective Ga16 antagonists. It counts as functional.
The target of test [7] is T1, Trace amine-associated receptor 1. Put plainly: Counterscreen for antagonists of the human trace amine associated receptor 1 (hTAAR1): Fluorescence-based cell-based high throughput dose response assay to identify TAAR1 Agonists. It counts as functional.
In test [8] the target is Albumin (Bos taurus, UniProt P02769). Put plainly: Counterscreen for inhibitors of T-cell receptor (TCR)-CD3 interaction: Fluorescence-based biochemical high throughput dose response assay to identify inhibitors of T-cell receptor (TCR)-CD3 interaction using a TAMRA-labeled BSA probe. Format: functional.
Sequence of Albumin (P02769 whole entry): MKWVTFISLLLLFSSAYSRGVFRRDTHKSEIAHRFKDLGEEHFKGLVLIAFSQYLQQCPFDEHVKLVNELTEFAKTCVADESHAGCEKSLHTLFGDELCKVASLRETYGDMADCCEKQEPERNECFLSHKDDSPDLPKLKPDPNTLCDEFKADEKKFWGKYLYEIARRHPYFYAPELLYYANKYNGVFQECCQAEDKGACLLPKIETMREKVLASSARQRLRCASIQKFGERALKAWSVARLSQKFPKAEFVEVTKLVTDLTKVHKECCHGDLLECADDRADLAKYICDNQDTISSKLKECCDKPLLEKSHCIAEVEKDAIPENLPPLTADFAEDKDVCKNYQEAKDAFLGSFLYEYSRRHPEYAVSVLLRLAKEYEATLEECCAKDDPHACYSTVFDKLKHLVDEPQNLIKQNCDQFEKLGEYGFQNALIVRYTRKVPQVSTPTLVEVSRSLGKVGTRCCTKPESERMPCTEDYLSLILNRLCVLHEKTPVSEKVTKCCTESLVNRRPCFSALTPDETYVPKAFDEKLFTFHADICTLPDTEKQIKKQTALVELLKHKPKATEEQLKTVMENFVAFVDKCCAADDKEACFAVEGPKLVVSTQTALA
A short description of test [9]: HGIII-sPLA2 enzyme inhibition potency – biochemical, QFRET, IC50, dose response (AID 743457).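 Also: green fluorescence rise as the enzyme cleaves BODIPY PC-A2 in liposomes.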
For test [10], the target named is T2, Hexokinase (Trypanosoma brucei, UniProt Q38C41).
T2 sequence (Q38C41 whole entry): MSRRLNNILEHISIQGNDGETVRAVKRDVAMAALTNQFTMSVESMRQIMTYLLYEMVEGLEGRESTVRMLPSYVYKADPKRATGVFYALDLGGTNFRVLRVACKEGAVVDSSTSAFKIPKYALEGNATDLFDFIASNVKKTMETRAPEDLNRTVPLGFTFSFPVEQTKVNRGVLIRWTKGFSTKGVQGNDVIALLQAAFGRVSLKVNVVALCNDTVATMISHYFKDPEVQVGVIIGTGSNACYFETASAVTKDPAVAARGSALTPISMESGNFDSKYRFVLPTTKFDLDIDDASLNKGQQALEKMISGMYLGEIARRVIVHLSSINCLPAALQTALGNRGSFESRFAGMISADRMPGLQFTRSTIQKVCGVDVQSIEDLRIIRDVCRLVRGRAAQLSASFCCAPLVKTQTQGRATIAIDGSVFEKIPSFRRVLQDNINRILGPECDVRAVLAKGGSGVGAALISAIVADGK
Put plainly: Confirmation assay for inhibitors of Trypanosoma brucei hexokinase 1-Analogue-first series. [Related pubchem assays (depositor defined):AID1430, AID1632, AID2516, AID2560, AID2579, AID2600, AID449725, AID492951]. It counts as functional.

Test [11] addresses Glucose-6-phosphate 1-dehydrogenase (Homo sapiens, UniProt P11413). As to the kind of experiment: inhibition of Homo sapiens G6PD, dose series – biochemical, fluorescence, selectivity assay for P. falciparum G6PD inhibitor project, dose response (AID 504792). It counts as functional.
Test [12] has as its target SWI/SNF-related matrix-associated actin-dependent regulator of chromatin subfamily A member 2 (Homo sapiens, UniProt P51531). Put plainly: Luminescence-based cell-based high throughput dose response assay to identify activators of the function of SWI/SNF related, matrix associated, actin dependent regulator of chromatin, subfamily a, member 2 (SMARCA2, BRM). Format: functional.

Test [13] in a line: Counterscreen for activators of the function of SWI/SNF related, matrix associated, actin dependent regulator of chromatin, subfamily a, member 2 (SMARCA2, BRM): Luminescence-based cell-based high throughput dose response assay to identify non-selective compounds using the VP16 reporter assay. It counts as functional.
Test [14] is described as follows: blockers of HIV-1 envelope-mediated cell-cell fusion – cherry-pick, dose response (AID 652057). Format: functional, cell-based.
Test [15] is described as follows: viability loss in CEM21 cells – cell-based, CellTiter-Glo luminescence, cherry-picked, cytotoxicity control for viral fusion inhibitor project, dose response (AID 652042).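 Also: potency for signal decrease meaning cytotoxicity.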 Format: functional.
Test [16] can be described thus: blockers of HIV-1 ZM109 envelope-driven cell-cell fusion – HeLa effector, CEM target cells, luciferase, cherry-pick, dose response (AID 652058).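 Also: luciferase signal from HIV-1 Env mediated cell-cell fusion of effector and target cells.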 Format: functional, cell-based.
A short description of test [17]: off-target signal loss in HeLa-CEM21 co-culture – HeLa F-luc CTL cells, cherry-picked, counter-screen for HIV-1 Env fusion inhibitor project, dose response (AID 652040).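 Also: potency for signal decrease marking cytotoxic or nonspecific inhibition.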 It counts as functional, cell-based.
Test [18] in a line: HIV-1 AD8 envelope cell-cell fusion blockers – cherry-pick, dose response (AID 652062).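 Also: luciferase signal from cell-cell fusion driven by HIV-1 clade B AD8 Env; potency is for inhibitors of fusion seen as a drop in luminescence.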 It counts as functional, cell-based.
Test [19] has as its target T3, Interleukin-8 (Homo sapiens, UniProt P10145).
T3 sequence (P10145 whole entry): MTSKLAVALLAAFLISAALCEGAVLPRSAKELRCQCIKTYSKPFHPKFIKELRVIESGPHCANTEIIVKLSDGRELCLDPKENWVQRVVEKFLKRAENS
Put plainly: Dose Response confirmation of uHTS small molecule hits for cystic fibrosis induced NFkb Inhibitors in a TNFa-induced IL8 counterscreen. The following applies: read-out: IC50_Mean. It counts as functional.

In test [20] the target is T3, Interleukin-8. Put plainly: Dose Response confirmation of uHTS small molecule hits for cystic fibrosis induced NFkb Inhibitors in a PAF-induced IL8 counterscreen. It counts as functional. The following applies: read-out: IC50_Mean.

Sequence of Beta-galactosidase (Q8VNN2 whole entry): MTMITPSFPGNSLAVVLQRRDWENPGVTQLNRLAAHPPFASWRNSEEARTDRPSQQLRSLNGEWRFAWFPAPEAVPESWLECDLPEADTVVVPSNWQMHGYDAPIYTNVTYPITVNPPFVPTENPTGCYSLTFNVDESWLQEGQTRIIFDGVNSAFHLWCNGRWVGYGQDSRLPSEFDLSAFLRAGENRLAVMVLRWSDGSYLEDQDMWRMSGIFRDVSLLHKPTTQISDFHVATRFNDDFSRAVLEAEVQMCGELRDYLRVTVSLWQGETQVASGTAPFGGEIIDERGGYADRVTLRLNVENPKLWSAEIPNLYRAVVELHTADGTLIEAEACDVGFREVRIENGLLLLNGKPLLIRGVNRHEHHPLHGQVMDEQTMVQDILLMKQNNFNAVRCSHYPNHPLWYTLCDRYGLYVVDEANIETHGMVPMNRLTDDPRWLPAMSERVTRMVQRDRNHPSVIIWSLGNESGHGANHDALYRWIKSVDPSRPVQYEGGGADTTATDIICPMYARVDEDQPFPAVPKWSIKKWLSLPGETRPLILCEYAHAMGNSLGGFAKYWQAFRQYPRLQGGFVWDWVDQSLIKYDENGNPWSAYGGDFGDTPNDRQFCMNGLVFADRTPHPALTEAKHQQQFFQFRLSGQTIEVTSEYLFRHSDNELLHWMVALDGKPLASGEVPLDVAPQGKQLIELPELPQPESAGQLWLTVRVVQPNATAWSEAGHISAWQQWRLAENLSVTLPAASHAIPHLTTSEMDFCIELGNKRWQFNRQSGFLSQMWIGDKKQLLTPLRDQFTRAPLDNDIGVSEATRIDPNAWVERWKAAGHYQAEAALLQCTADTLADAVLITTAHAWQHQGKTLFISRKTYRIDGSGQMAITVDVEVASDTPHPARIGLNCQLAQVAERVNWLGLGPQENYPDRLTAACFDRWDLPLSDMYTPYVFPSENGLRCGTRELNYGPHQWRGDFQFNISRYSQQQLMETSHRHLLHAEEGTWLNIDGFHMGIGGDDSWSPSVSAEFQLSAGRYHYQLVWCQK
Sequence of SWI/SNF-related matrix-associated actin-dependent regulator of chromatin subfamily A member 2 (P51531 whole entry): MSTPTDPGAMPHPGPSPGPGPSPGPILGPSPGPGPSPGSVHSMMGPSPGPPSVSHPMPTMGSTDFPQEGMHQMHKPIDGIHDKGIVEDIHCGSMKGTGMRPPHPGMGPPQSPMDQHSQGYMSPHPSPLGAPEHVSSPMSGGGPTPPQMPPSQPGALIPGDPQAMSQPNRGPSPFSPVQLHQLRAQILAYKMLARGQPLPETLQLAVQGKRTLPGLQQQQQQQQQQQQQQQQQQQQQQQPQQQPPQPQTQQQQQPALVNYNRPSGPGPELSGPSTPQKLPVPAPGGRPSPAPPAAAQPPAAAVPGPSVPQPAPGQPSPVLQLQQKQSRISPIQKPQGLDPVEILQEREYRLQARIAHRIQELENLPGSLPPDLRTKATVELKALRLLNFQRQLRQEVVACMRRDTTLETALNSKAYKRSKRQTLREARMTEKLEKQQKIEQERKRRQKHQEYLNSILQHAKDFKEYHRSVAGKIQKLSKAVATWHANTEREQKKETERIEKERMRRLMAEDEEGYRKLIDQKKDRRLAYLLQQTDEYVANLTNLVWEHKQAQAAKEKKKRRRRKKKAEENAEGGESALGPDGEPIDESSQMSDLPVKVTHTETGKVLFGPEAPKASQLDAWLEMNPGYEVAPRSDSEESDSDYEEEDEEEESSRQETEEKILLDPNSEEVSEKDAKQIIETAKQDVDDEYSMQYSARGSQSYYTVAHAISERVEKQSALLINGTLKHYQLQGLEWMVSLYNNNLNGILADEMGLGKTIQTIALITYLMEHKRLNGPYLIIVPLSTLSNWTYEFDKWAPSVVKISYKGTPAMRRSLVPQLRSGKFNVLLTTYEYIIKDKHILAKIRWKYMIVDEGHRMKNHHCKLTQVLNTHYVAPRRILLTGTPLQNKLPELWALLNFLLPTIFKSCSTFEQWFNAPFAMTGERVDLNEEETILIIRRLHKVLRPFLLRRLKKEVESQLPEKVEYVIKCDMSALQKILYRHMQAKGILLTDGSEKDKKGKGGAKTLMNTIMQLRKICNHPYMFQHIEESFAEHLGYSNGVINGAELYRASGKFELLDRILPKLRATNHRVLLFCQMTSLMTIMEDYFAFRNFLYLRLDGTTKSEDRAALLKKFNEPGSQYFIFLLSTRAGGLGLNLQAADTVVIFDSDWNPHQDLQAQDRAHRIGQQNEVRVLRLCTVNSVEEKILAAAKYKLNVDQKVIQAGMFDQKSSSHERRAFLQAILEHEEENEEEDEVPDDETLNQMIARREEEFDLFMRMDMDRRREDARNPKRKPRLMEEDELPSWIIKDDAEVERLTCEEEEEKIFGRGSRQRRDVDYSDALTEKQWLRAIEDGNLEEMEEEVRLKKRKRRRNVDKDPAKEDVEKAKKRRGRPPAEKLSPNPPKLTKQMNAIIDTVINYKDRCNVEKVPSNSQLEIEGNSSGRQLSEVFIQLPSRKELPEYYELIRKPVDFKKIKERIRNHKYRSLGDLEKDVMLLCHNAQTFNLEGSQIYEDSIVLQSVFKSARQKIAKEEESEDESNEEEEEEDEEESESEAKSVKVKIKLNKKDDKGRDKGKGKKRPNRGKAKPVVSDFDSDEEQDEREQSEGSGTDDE
Sequence of Glucose-6-phosphate 1-dehydrogenase (P11413 whole entry): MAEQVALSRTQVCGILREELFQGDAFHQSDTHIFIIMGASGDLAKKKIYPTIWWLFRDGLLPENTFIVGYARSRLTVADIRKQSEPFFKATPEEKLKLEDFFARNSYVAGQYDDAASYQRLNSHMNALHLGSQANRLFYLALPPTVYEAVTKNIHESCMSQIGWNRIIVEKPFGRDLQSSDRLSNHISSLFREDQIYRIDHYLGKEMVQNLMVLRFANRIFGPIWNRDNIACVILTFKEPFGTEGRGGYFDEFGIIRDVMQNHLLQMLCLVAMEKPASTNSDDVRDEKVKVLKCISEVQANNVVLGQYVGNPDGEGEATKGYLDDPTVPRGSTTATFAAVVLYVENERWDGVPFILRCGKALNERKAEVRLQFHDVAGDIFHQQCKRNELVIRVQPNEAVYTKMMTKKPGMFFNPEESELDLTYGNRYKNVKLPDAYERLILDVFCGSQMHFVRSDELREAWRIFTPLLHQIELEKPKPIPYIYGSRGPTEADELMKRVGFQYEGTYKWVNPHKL

`CCOC(=O)C1=C(Nc2ccc(Cl)cc2)S/C(=C\c2ccccn2)C1=O`: in [1], the IC50 is > 80 µM (inactive).
As for `O=C(/C=C/c1ccccc1)N1CCN(CCN2C(=O)c3cccc4cccc(c34)C2=O)CC1`, the CC50 (commonly the concentration giving 50% cytotoxicity) in test [2] was 60.2 µM (active); in test [3] it was > 100 µM (active). In addition, in test [1], the IC50 was > 80 µM (inactive).
For `COc1ccc2oc(C(=O)OCC(=O)NCc3ccccc3OC)c(C)c2c1`, the EC50 (usually the concentration giving half of the maximal effect) in test [4] was > 29.9 µM (inactive); in [7], 7.16 µM (active). The results for the IC50 in test [5] and in test [6] were 6.65 µM (active) and > 29.9 µM (inactive), respectively.
On to `O=C(NN=Cc1sc(=O)[nH]c1-[n+]1ccc2ccccc2c1)c1ccccc1[O-]`, for which the IC50 in test [8] is > 94.1 µM (inactive).
Same read-out and setting: under `NC(=O)CCC1NC(=S)N(Cc2ccccc2)C1=O` (stereo not drawn) stands > 94.1 µM (inactive).
In the case of `O=C(NNC(=S)Nc1ccccc1Cl)c1ccccc1Cl`, the IC50 in test [9] was > 122 µM (inactive).
As to `Cn1sc2ccccc2c1=O`, the IC50 in test [10] was > 25 µM (inactive); in test [11], 37.3 µM (inactive). In addition, the EC50 in test [12] and in [13] was > 91.2 µM (inactive) in each case.
Regarding `OCCCn1c(CCNc2nc(-c3ccc(F)cc3)cs2)nc2cc(C(F)(F)F)ccc21`, the AC50 (in general, the concentration at which the activity in the assay is half-maximal) in [14] is 8.76 µM (active); in [15], 51.5 µM (active); in test [16], 5.8 µM (active); in test [17], 43.1 µM (active); in test [18], 16 µM (active).
`C=C1C(=O)[C@]23C[C@H]1CCC2[C@@]1(C)C(C[C@@H]3O)[C@](C)(C(=O)O)CC[C@@H]1O` (stereo partly drawn): the figures for the IC50 in test [19] and in [20] were 39.7 µM (inactive) and 817 nM (active), respectively. Besides, the EC50 in [12] was > 10.1 µM (inactive); in [13], > 91.3 µM (inactive).
As to `Cc1cccc(C(C#N)c2nc3ccccc3nc2C(F)(F)F)c1` (stereo not drawn), the EC50 in [4] and in test [7] was > 29.9 µM (inactive) throughout. For the same compound, the IC50 in [5] is 1.58 µM (active); in test [6], > 29.9 µM (inactive).
